This passage reports T/C results from PubChem BioAssay AID256 (DTP/NCI, 2004).

This assay deals with CD2F1 mice, L1210 leukemia ip, survival T/C. Description: NCI In Vivo Anticancer Drug Screen. Data for tumor model L1210 Leukemia (intraperitoneal) in CD2F1 (CDF1) mice. Conditions: higher = longer survival. The essentials: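 In this screen, transplantable tumors were grown in mice given either the compound or its vehicle. Results were expressed as the treated measurement relative to the control measurement.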

[1] abbreviates: endpoint: mean survival time, dose: 25.0 mg/kg/injection, schedule: Q01DX009 (ip), vehicle: saline with Tween-80.
[2] abbreviates: endpoint: mean survival time, dose: 100.0 mg/kg/injection, schedule: Q01DX009 (ip), vehicle: saline with Tween-80.
[3] abbreviates: endpoint: mean survival time, dose: 100.0 mg/kg/injection, schedule: Q04DX003 (ip), vehicle: saline with Tween-80.
Setting [4] is: endpoint: mean survival time, dose: 200.0 mg/kg/injection, schedule: Q04DX003 (ip), vehicle: saline with Tween-80.
The mark [5] stands for this setting: endpoint: mean survival time, dose: 400.0 mg/kg/injection, schedule: Q04DX003 (ip), vehicle: saline with Tween-80.
[6] abbreviates: endpoint: mean survival time, dose: 100.0 mg/kg/injection, schedule: Q01DX001 (ip), vehicle: saline with Tween-80.
[7] abbreviates: endpoint: mean survival time, dose: 200.0 mg/kg/injection, schedule: Q01DX001 (ip), vehicle: saline with Tween-80.
The mark [8] stands for this setting: endpoint: mean survival time, dose: 400.0 mg/kg/injection, schedule: Q01DX001 (ip), vehicle: saline with Tween-80.
The mark [9] stands for this setting: endpoint: mean survival time, dose: 6.25 mg/kg/injection, schedule: Q01DX009 (ip), vehicle: saline with Tween-80.
Where [10] appears, read: endpoint: mean survival time, dose: 12.5 mg/kg/injection, schedule: Q01DX009 (ip), vehicle: saline with Tween-80.
[11] abbreviates: endpoint: mean survival time, dose: 100.0 mg/kg/injection, schedule: Q04DX002 (ip), vehicle: saline with Tween-80.
The mark [12] stands for this setting: endpoint: mean survival time, dose: 200.0 mg/kg/injection, schedule: Q04DX002 (ip), vehicle: saline with Tween-80.
[13] abbreviates: endpoint: mean survival time, dose: 400.0 mg/kg/injection, schedule: Q04DX002 (ip), vehicle: saline with Tween-80.
Where [14] appears, read: endpoint: mean survival time, dose: 200.0 mg/kg/injection, schedule: Q01DX009 (ip), vehicle: saline with Tween-80.
The mark [15] stands for this setting: endpoint: mean survival time, dose: 400.0 mg/kg/injection, schedule: Q01DX009 (ip), vehicle: saline with Tween-80.

“And” between values parts separate entries of the source, which are not always exact repeats. Equal entries are not always repeated. Toxic doses and inconclusive results are not listed.

As for `CSc1nc(NC2OC(CO)C(O)C(O)C2O)c(C(C)=O)c(=O)n1C` (configuration not stated), the T/C runs as follows: (endpoint: median survival time, dose: 12.5 mg/kg/injection, schedule: Q01DX005 (ip), vehicle: saline with Tween-80) 98 % of control; (endpoint: median survival time, dose: 25.0 mg/kg/injection, schedule: Q01DX005 (ip), vehicle: saline with Tween-80) 98 % of control; (endpoint: median survival time, dose: 50.0 mg/kg/injection, schedule: Q01DX005 (ip), vehicle: saline with Tween-80) 97 % of control; (endpoint: median survival time, dose: 100.0 mg/kg/injection, schedule: Q01DX005 (ip), vehicle: saline with Tween-80) 100 % of control; (endpoint: median survival time, dose: 200.0 mg/kg/injection, schedule: Q01DX005 (ip), vehicle: saline with Tween-80) 88 % of control.
`Nc1nc(Cl)nc2c1ncn2C1CC(O)C(CO)O1` (configuration not stated): the T/C is 124 % of control (endpoint: median survival time, dose: 1.56 mg/kg/injection, schedule: Q01DX009 (ip), vehicle: Klucel (hydroxypropylcellulose) (HPC)); 172 % of control (endpoint: median survival time, dose: 7.5 mg/kg/injection, schedule: Q03HX009 (ip), vehicle: saline); 107 % of control (endpoint: median survival time, dose: 7.5 mg/kg/injection, schedule: Q03HX009 (ip), vehicle: suspension in saline); 735 % of control (endpoint: median survival time, dose: 10.0 mg/kg/injection, schedule: Q03HX024 (ip), vehicle: saline); 180 % of control (endpoint: median survival time, dose: 12.5 mg/kg/injection, schedule: Q01DX009 (ip), vehicle: Klucel (hydroxypropylcellulose) (HPC)); 168 % of control (endpoint: median survival time, dose: 15.0 mg/kg/injection, schedule: Q03HX009 (ip), vehicle: saline). The T/C runs as follows: (endpoint: median survival time, dose: 15.0 mg/kg/injection, schedule: Q03HX009 (ip), vehicle: suspension in saline) 100 % of control; (endpoint: median survival time, dose: 15.0 mg/kg/injection, schedule: Q03HX024 (ip), vehicle: saline) 345 % of control; (endpoint: median survival time, dose: 20.0 mg/kg/injection, schedule: Q03HX024 (ip), vehicle: saline) 735 % of control; (endpoint: median survival time, dose: 25.0 mg/kg/injection, schedule: Q01DX009 (ip), vehicle: Klucel (hydroxypropylcellulose) (HPC)) 192 % of control; (endpoint: median survival time, dose: 30.0 mg/kg/injection, schedule: Q03HX009 (ip), vehicle: saline) 208 % of control; (endpoint: median survival time, dose: 30.0 mg/kg/injection, schedule: Q03HX009 (ip), vehicle: suspension in saline) 109 % of control. Also, the T/C is 204 % of control (endpoint: median survival time, dose: 60.0 mg/kg/injection, schedule: Q03HX009 (ip), vehicle: saline); 109 % of control (endpoint: median survival time, dose: 60.0 mg/kg/injection, schedule: Q03HX009 (ip), vehicle: suspension in saline); 113 % of control (endpoint: median survival time, dose: 120.0 mg/kg/injection, schedule: Q03HX009 (ip), vehicle: suspension in saline).
Take `N#CC(C#N)=Cc1ccc2c(c1)CCC2`: the T/C runs as follows: under setting [1], 93 % of control; (endpoint: mean survival time, dose: 25.0 mg/kg/injection, schedule: Q04DX003 (ip), vehicle: saline with Tween-80) 100 % of control; (endpoint: mean survival time, dose: 50.0 mg/kg/injection, schedule: Q01DX009 (ip), vehicle: saline with Tween-80) 96 % of control; (endpoint: mean survival time, dose: 50.0 mg/kg/injection, schedule: Q04DX003 (ip), vehicle: saline with Tween-80) 90 % of control; under setting [2], 94 % of control; under setting [3], 95 % of control.
As for `O=C(Nc1cccc(S(=O)(=O)F)c1)c1cccc([N+](=O)[O-])c1`, the T/C under setting [3] was 105 % of control, the T/C under setting [4] is 102 % of control and the T/C under setting [5] was 96 % of control.
Regarding `NC(=S)OCCCCCn1cnc2c(=S)nc[nH]c21`, the T/C under setting [6] was 95 % of control, the T/C under setting [7] was 97 % of control and the T/C under setting [8] was 105 % of control.
The corresponding values for `CC1(C)CC(=O)N(Cc2ccccc2)N1C(=O)c1ccccc1` are 113 % of control, 106 % of control and 101 % of control.
On to `CC(O)C1OC(n2cnc3c(=O)[nH]cnc32)CC1O` (configuration not stated), for which the T/C is 100 % of control (endpoint: median survival time, dose: 12.5 mg/kg/injection, schedule: Q01DX005 (ip), vehicle: water); 100 % of control (endpoint: median survival time, dose: 25.0 mg/kg/injection, schedule: Q01DX005 (ip), vehicle: water); 104 % of control (endpoint: median survival time, dose: 50.0 mg/kg/injection, schedule: Q01DX005 (ip), vehicle: water); 102 % of control (endpoint: median survival time, dose: 100.0 mg/kg/injection, schedule: Q01DX005 (ip), vehicle: water); 102 % of control (endpoint: median survival time, dose: 200.0 mg/kg/injection, schedule: Q01DX005 (ip), vehicle: water).
As for `C=C1C(=O)C23[C@H](O)C1CC[C@H]2[C@]12COC3(O)[C@@H](O)[C@@H]1C(C)(C)CC[C@@H]2O`, the T/C was 97 % of control and 111 % of control (endpoint: mean survival time, dose: 1.56 mg/kg/injection, schedule: Q01DX009 (ip), vehicle: saline with Tween-80); 102 % of control and 103 % of control (endpoint: mean survival time, dose: 3.12 mg/kg/injection, schedule: Q01DX009 (ip), vehicle: saline with Tween-80); 93 % of control and 105 % of control and 107 % of control (endpoint: mean survival time, dose: 4.5 mg/kg/injection, schedule: Q01DX009 (ip), vehicle: Klucel (hydroxypropylcellulose) (HPC)); 96 % of control and 102 % of control under setting [9]; 95 % of control and 97 % of control (endpoint: mean survival time, dose: 9.0 mg/kg/injection, schedule: Q01DX009 (ip), vehicle: Klucel (hydroxypropylcellulose) (HPC)); 97 % of control and 105 % of control under setting [10]. The T/C (endpoint: mean survival time, dose: 18.0 mg/kg/injection, schedule: Q01DX009 (ip), vehicle: Klucel (hydroxypropylcellulose) (HPC)) is 93 % of control and 101 % of control and 107 % of control; the T/C under setting [1] was 102 % of control and 105 % of control; the T/C (endpoint: mean survival time, dose: 36.0 mg/kg/injection, schedule: Q01DX009 (ip), vehicle: Klucel (hydroxypropylcellulose) (HPC)) was 90 % of control and 107 % of control.
With `COc1c(C)c2c(c(O)c1CCNc1ccc(S(N)(=O)=O)cc1)C(=O)OC2`, the T/C by setting is: under setting [11], 100 % of control; under setting [12], 96 % of control; under setting [13], 100 % of control.
Turning to `NS(=O)(=O)c1ccc(N2CCCCC2)c([N+](=O)[O-])c1`, the T/C reads like this: (endpoint: mean survival time, dose: 100.0 mg/kg/injection, schedule: Q01DX009 (ip), vehicle: other) 95 % of control; under setting [11], 91 % of control; (endpoint: mean survival time, dose: 200.0 mg/kg/injection, schedule: Q01DX009 (ip), vehicle: other) 95 % of control; under setting [12], 98 % of control; (endpoint: mean survival time, dose: 400.0 mg/kg/injection, schedule: Q01DX009 (ip), vehicle: other) 101 % of control; under setting [13], 100 % of control.
For the compound `CC(O)C(NC(=O)c1cnc(OCc2ccccc2)nc1N)C(=O)O` (configuration not stated), the T/C reads like this: under setting [9], 104 % of control; under setting [10], 100 % of control; under setting [1], 104 % of control.
As for `CCN(C(=O)Nc1ccc(Cl)cc1)c1ccccc1`, the T/C by setting is: under setting [2], 97 % of control; under setting [14], 100 % of control; under setting [15], 96 % of control.
Take `Nc1nc2c(nnn2C2CC(O)C(CO)C2)c(=O)[nH]1` (configuration not stated): the T/C by setting is: under setting [2], 100 % of control; under setting [14], 104 % of control.
For `CCCCCCCCCCCCCCCCCCOCCCCCCCCCCCCCCCCCC`, the T/C is 102 % of control under setting [2]; 95 % of control under setting [3]; 98 % of control under setting [14]; 88 % of control under setting [4]; 93 % of control under setting [15]; 92 % of control under setting [5].
For `N=C(N)c1ccc(N)cc1`, the T/C was 103 % of control (endpoint: mean survival time, dose: 100.0 mg/kg/injection, schedule: Q04DX003 (ip), vehicle: saline) and 101 % of control (endpoint: mean survival time, dose: 200.0 mg/kg/injection, schedule: Q04DX003 (ip), vehicle: saline).
On to `C=CCOC(=O)Oc1ccccc1Cl`, for which the T/C under setting [2] is 102 % of control, the T/C under setting [3] was 98 % of control and the T/C under setting [4] was 95 % of control.
